Test results from article PMC12779811, “Diverse phloroglucinols with hAChE inhibitory and anti-VRE effects from Rhodomyrtus tomentosa fruits” (Natural Products and Bioprospecting, 2026).
Values after ≈ are worked out from the molar mass of the structure shown.

Legend:
[1] = tested on: vancomycin-resistant Enterococci (VRE); assay: Anti-VRE assay, standard broth microdilution method in 96-well plates; assay type: cell-based; settings: Enterococcus, ampicillin positive control, tests performed three times, read-out: MIC against vancomycin-resistant Enterococci (VRE)
Experimental: As described in earlier studies, the antibacterial activities against vancomycin-resistant Enterococci (VRE) were achieved by a standard broth microdilution method in 96-well plates. Ampicillin (AMP) was a positive control, and all tests were performed three times.

[2] = biological target: T1, human acetylcholinesterase (hAChE) (Homo sapiens, UniProt P22303); assay: biochemical; settings: triplicate; galantamine positive control; IC50 exceeding 40 μM considered inactive; read-out: hAChE inhibitory activity IC50 ± SD
T1 sequence (P22303 32-614): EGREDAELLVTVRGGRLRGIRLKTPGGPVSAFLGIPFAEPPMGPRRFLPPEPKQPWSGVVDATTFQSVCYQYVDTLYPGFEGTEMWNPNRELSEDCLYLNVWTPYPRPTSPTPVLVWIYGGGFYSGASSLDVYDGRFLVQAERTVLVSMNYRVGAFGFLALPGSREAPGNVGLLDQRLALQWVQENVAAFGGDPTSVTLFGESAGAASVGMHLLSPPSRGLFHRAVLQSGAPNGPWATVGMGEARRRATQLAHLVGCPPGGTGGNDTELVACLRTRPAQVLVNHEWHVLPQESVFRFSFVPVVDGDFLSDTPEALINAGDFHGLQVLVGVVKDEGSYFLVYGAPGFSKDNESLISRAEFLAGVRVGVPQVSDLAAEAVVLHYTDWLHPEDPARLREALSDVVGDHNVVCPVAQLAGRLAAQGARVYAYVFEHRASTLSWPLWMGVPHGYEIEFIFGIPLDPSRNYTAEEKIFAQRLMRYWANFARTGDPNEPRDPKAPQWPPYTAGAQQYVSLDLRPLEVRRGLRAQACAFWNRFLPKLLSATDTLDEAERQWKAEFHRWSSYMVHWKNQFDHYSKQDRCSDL
Experimental: hAChE inhibition assays were performed according to a reported protocol, with galantamine as the positive control. All assays were performed in triplicate.

[3] = biological target: T1, human acetylcholinesterase (hAChE); design: method as in PMID 36007662; settings: earlier report; cited from earlier work

## CC(C)CC(=O)c1c(O)cc2c(c1O)C(CC(C)C)C1=C(O2)C(C)(C)C(=O)C(C)(C)C1=O (stereo not shown) [phloroglucinol 12, rhodomyrtone]
[1]
  MIC: 1 µg/mL (≈ 2.26 µM)
[2]
  IC50: 1520 ± 140 nM

## CCC(C)C1C2=C(Oc3c(C(=O)C(C)C)c(O)cc(O)c31)C(C)(C)C(=O)C(C)(C)C2=O (stereo not shown) [phloroglucinol 3, rhodotomentodimer I]
[2]
  IC50: 2890 ± 300 nM

## CC1(C)S[C@@H]2[C@H](NC(=O)[C@H](N)c3ccccc3)C(=O)N2[C@H]1C(=O)O [ampicillin, reference compound]
[1]
  MIC: 2 µg/mL (≈ 5.72 µM)

## CCC(C)C(=O)c1c(O)cc2c(c1O)C(CC(C)C)C1=C(O2)C(C)(C)C(=O)C(C)(C)C1=O (stereo not shown) [phloroglucinol 10, rhodotomentodimer D]
[3]
  inhibitory activity against human acetylcholinesterase (hAChE), in words: exhibited inhibitory activity

## CCC(C)C(=O)c1c(O)cc(O)c2c1OC1=C(C(=O)C(C)(C)C(=O)C1(C)C)C2C(C)CC (stereo not shown) [phloroglucinol 7, rhodotomentodimer M]
[2]
  IC50: 2410 ± 220 nM

## CCC(C)C(=O)c1c(O)cc2c(c1O)C(C(C)CC)C1=C(O2)C(C)(C)C(=O)C(C)(C)C1=O (stereo not shown) [phloroglucinol 8, rhodotomentodimer N]
[2]
  IC50: 3350 ± 410 nM

## CCC(C)C(=O)c1c(O)cc(O)c2c1OC1=C(C(=O)C(C)(C)C(=O)C1(C)C)C2C(C)C (stereo not shown) [phloroglucinol 4, rhodotomentodimer J]
[2]
  IC50: 2390 ± 250 nM

## CC(C)C[C@H]1C2=C(O[C@]3(C)[C@H]1C[C@]1(C(C)C)C[C@@H]13)C(C)(C)C(=O)C(C)(C)C2=O [phloroglucinol 1, rhodotomentodione F]
[2]
  IC50: > 40000 nM

## CC1(C)C(=O)C2=C(OC3(O)C(=C2)C(=O)C(C)(C)C(=O)C3(C)C)C(C)(C)C1=O (stereo not shown) [phloroglucinol 2, rhodotomentodimer H]
[2]
  IC50: > 40000 nM

## CCC(C)C(=O)c1c(O)cc(O)c2c1OC1=C(C(=O)C(C)(C)C(=O)C1(C)C)C2C(C)C (stereo not shown) [phloroglucinol 5, rhodotomentodimer K]
[2]
  IC50: 2460 ± 330 nM

## CCC(C)C(=O)c1c(O)cc(O)c2c1OC1=C(C(=O)C(C)(C)C(=O)C1(C)C)C2C(C)CC (stereo not shown) [phloroglucinol 6, rhodotomentodimer L]
[2]
  IC50: 2620 ± 210 nM

## CC(C)C(=O)c1c(O)cc(O)c2c1OC1=C(C(=O)C(C)(C)C(=O)C1(C)C)C2C(C)C (stereo not shown) [phloroglucinol 13, myrtucommulone B]
[1]
  MIC: > 32 µg/mL
[2]
  IC50: 1040 ± 30 nM

## CC(C)C(=O)c1c(O)cc2c(c1O)C(C(C)C)C1=C(O2)C(C)(C)C(=O)C(C)(C)C1=O (stereo not shown) [phloroglucinol 11, isomyrtucommulone B]
[1]
  MIC: 1 µg/mL (≈ 2.41 µM)
[2]
  IC50: 1360 ± 160 nM

## CCC(C)C(=O)c1c(O)cc2c(c1O)C(C(C)C)C1=C(O2)C(C)(C)C(=O)C(C)(C)C1=O (stereo not shown) [phloroglucinol 9, myrciarone B]
[2]
  IC50: 2860 ± 300 nM

## CC(C)CC(=O)c1c(O)cc(O)c2c1OC1=C(C(=O)C(C)(C)C(=O)C1(C)C)C2C(C)C (stereo not shown) [phloroglucinol 14, callistenone A]
[1]
  MIC: > 32 µg/mL
[2]
  IC50: 1230 ± 110 nM
